Assays:
Assay type in all cases: cell-based, Human
[1] = system: HB4A; assay: Quantification of CMP-Neu5Ac, UDP-GlcNAc, surface Neu5Ac and surface Neu5Gc (HPLC)
Experimental: (§1) Protocol for nutrient deprivation of cells in suspension: Step 1, cell cultures were harvested as described above. Step 2, cells were resuspended in serum-free RPMI-1640 medium and pelleted by centrifugation at 900×g for 5 min; during this step cells experience 10 min of nutrient deprivation in serum-free media without Neu5Ac. Step 3, the cells were rinsed twice in 37° C. PBS by centrifugation for 5 min and 1 mL aliquots of 1×10^4 cells were pipetted gently into 15 mL BD Falcon tubes; during this step the cells experience an additional 20 min of nutrient-deprivation. Step 3, cell suspension aliquots corresponding to […] were equilibrated in tubes containing Neu5Ac-PBS buffer by placing the tubes with opened caps for 60 min in a humidified incubator at 37° C. and 5% CO2 with continuous shaking at 30 strokes per minute; during this Neu5Ac-supplementation step, negative controls were maintained in non-supplemented PBS. Step 4, the Neu5Ac-PBS solution was decanted, the tubes were gently tapped to loosen the gravity-pelleted cells, and then rinsed twice in warm (37° C.) PBS followed by pelleting by 5 min of centrifugation each time, this process provided an additional 30 min of nutrient-deprivation in the absence of supplemental Neu5Ac. The entire 5 step process results in 2 h of nutrient deprivation, after which the cells were analyzed by the methods listed below with the exception of the wound healing assays and lectin staining which used cells that were nutrient-deprived under adherent conditions. Protocol for nutrient deprivation of adherent cells. Step 1, cells were cultured on sterile glass microscope cover slips for two days. Step 2, the cover slips were placed in a sterile plastic rack in warm (37° C.) PBS buffer for 30 min, then the PBS was replaced with Neu5Ac-PBS solution for 60 min to provide Neu5Ac supplementation (controls were maintained in non-supplemented PBS), and then the cell-laden cover slips were placed back in PBS buffer for 30 min. All incubations were performed in a humidified incubator at 37° C. and 5% CO2 with continuous shaking at 30 strokes per minute. Overall this process mimics the non-adherent treatment conditions with respect to the duration of nutrient-deprivation (2 h total) and Neu5Ac supplementation (60 min).
(§2) Cells were split and cultured (before feeding experiments) in RPMI1640 medium supplemented with 1% heat-inactivated human serum (RPMI/HUS) instead of FBS, resulting in chase-out of existing Neu5Gc. Subsequently, cells were fed with 10 mM Neu5Gc in RPMI/HUS medium or under nutrient deprived conditions as described above.
(§3) PBS-washed cells (1 Million) (untreated or Neu5Ac treated) were lysed by hypotonic shock in 1 mL water (15 min, 4° C.). The intracellular cytidine-5′-monophospho-N-acetylneuraminic acid (CMP-Neu5Ac) and uridine-5′-diphospho-N-acetyl-D-glucosamine (UDP-GlcNAc) were purified from the cell lysates and analyzed by ion-pair reversed-phase high performance liquid chromatography (IP RP HPLC) using a ODS column as described. Cell membrane-bound Neu5Ac (from untreated and Neu5Ac treated) and Neu5Gc (from untreated and Neu5Gc treated) were determined by acid hydrolysis followed by derivatization with 1,2-diamino-4,5-methylenedioxybenze (DMB) and HPLC separation as previously described. The content of CAMP-Neu5Ac, UDP-GlcNAc, surface Neu5Ac, and surface Neu5Gc was shown in nano mole per mg cell protein from five independent experiments.
(§4) Table-1: Quantification of nucleotide sugars, surface Nec5Ac, UDP-GlcNAc, Neu5Gc: Cells were treated in the presence and absence of 10 mM Nue5Ac for 2 h under nutrient deprivation and quantity of CMP-Neu5Ac (A), surface Neu5Ac (B), and UDP-GlcNAc (C) were determined. D. For quantification of surface Neu5Gc cells were treated with 10 mM Neu5Gc for 2 hrs under nutrient deprivation. The content of CMP-Neu5Ac, UDP-GlcNAc and Neu5Gc was shown in nano mole per mg cell protein from 5 independent experiments.

[2] = system: MDA MB231; assay: as above
Experimental: as §1, §2, §3, §4

[3] = system: MCF7; assay: as above
Experimental: as §1, §2, §3, §4

[4] = system: T47D; assay: as above
Experimental: as §1, §2, §3, §4

[5] = system: MCF10A; assay: as above
Experimental: as §1, §2, §3, §4

[6] = system: MDA MB231 cells; assay: Microarray of genes upregulated after sialic acid treatment under nutrient deprivation
Experimental: The membrane glycosylation of the cancer cells is synchronized by the alteration of gene expression. The microarray was performed aiming to identify the genes that had undergone changes induced by the enriched sugar environment. […] Inventors examined the status of the expression of those genes at both transcriptional and translational level, in another word, at mRNA and protein level by performing the quantitative real time polymerase chain reaction (qRT-PCR) and immunoblot. Remarkably, qRT-PCR and Western blot are 2 techniques that are used to quantify the expression of mRNA and protein. Data of qRT-PCR and Western blot were in strong agreement with the microarray data indicating a clear link between the expression of those genes and glycosylation of cell membrane domain. This patent aims to pursue the cancer cell management by targeting those genes at mRNA and protein level. Small interference RNA (siRNA) and small hairpin RNA (shRNA) will be designed to knockdown the mRNA. Similarly, the functions of the genes at protein level will be inhibited or disrupted by using antibody, small peptide, pharmaceutical blocker, and targeted toxin. Regression of cancer cells will be verified following transcriptional and translational manipulation.

[7] = system: cancer and normal control cells; assay: TUNEL assay flow cytometry of apoptosis after sialic acid treatment
Experimental: For this purpose, cells were fixed by suspending them in 70% (v/v) ethanol and stored at 4° C. for 15 min, washed twice with cold PBS, and then placed in 96-well plates (1×10^4 cells per well). The cells were then stained with the fluorescein isothiocyanate-labeled lectins (SWGA, WGA, SNA and MAL-1). For the comparison of mean fluorescence intensities, the instrument settings for fluorescence and compensation were the same for all experiments. Data were collected from at least 10,000 cells for each sample. For TUNEL assay, cells were incubated with DNA-labeling solution (10 μL reaction buffer, 0.75 μL TdT enzyme, 8 μL BrdUTP, 31.25 μL of dH2O) for 1 h at 25° C. Each sample was then exposed to an antibody solution consisting of 5 μL Alexa Fluor 488 labeled anti-BrdU antibody with 95 μL rinse solution and allowed to react for 20 min.
FIG. 6: Optimization of conditions for nutrient deprivation and rescue via sialic acid supplementation. […] Data are the representative of five independent experiments.

[8] = system: cancer cells T47D, MCF7, MDA MB231; assay: Membrane glycosylation of cancer cells compared to normal control cells (Table 1 summary); conditions: 10 mM, all the cancer cells compared to control normal cells
Experimental: as §3
Human normal mammary epithelial cell lines MCF10A and HB4A and breast cancer cell lines T47D, MCF7 and MDA MB231 (American Type Culture Collection, USA) used in the study were cultured and treated according to the methods described earlier. Cells were nutritionally deprived using different time points followed by the sialic acid supplementation according to the method described earlier. […] The data were in strong agreement with the immunoblot data which were derived by assessing different enzymes responsible for glycosylation. […]

[9] = treated with 10 mM Neu5Ac for 2 h under nutrient deprivation
[10] = MDA MB231, treated with 10 mM Neu5Ac for 2 h under nutrient deprivation
[11] = MCF7, treated with 10 mM Neu5Ac for 2 h under nutrient deprivation
[12] = 10 mM sialic acid under nutrient deprivation relative to the untreated control
[13] = treated with 10 mM Neu5Gc for 2 hrs under nutrient deprivation

In the case of `CC(=O)N[C@H]1[C@H]([C@H](O)[C@H](O)CO)OC(O)(C(=O)O)C[C@@H]1O` (some centres unmarked) [Neu5Ac, N-acetyl-5-neuraminic acid], the CMP-Neu5Ac [1, 9] is reported as 0.51 ± 1.33 nano mole per mg cell protein, the UDP-GlcNAc [1, 9] is reported as 5.32 ± 7.41 nano mole per mg cell protein and the “surface Neu5Ac” value [1, 9] is reported as 1.83 ± 2.09. The CMP-Neu5Ac [2, 10] was 2.496 ± 2.63 nano mole per mg cell protein, the UDP-GlcNAc [2, 10] was 12.53 ± 4.2 nano mole per mg cell protein and the “surface Neu5Ac” value [2, 10] was 7.12 ± 4.91. For the same molecule, the CMP-Neu5Ac [3, 11] was 2.253 ± 1.77 nano mole per mg cell protein, the UDP-GlcNAc [3, 11] was 12.40 ± 3.66 nano mole per mg cell protein and the “surface Neu5Ac” value [3, 11] was 7.05 ± 3.95. The CMP-Neu5Ac [4, 9] was 1.06 ± 1.42 nano mole per mg cell protein, the UDP-GlcNAc [4, 9] was 6.513 ± 5.3 nano mole per mg cell protein and the “surface Neu5Ac” value [4, 9] was 5.07 ± 4.56. The CMP-Neu5Ac [5, 9] was 0.45 ± 1.92 nano mole per mg cell protein, the UDP-GlcNAc [5, 9] was 5.18 ± 2.52 nano mole per mg cell protein and the “surface Neu5Ac” value [5, 9] was 1.81 ± 2.15. The “Log2 Ratio, CHI3L2” value [6, 12] was 2.68, the “Log2 Ratio, EQTN” value [6, 12] was 3.078 and the “Log2 Ratio, OSMR” value [6, 12] was 2.215. The “Log2 Ratio, PCMTD1” value [6, 12] was 2.118, the “Log2 Ratio, PHLDA1” value [6, 12] was 2.626 and the “Log2 Ratio, RICTOR” value [6, 12] was 2.334. The “Log2 Ratio, RSRP1” value [6, 12] was 2.33, the “Log2 Ratio, RUNX2” value [6, 12] was 2.21 and the “Log2 Ratio, SCG2” value [6, 12] was 2.171. For the same molecule, the “Log2 Ratio, SEC24D” value [6, 12] was 2.199, the “expression of 10 particular genes in sialic acid treated cancer cells” value ([6]; compared to normal control cells) was “more than 5 folds” and the apoptosis ([7]; 180 minutes, both cell types, cancer and normal control cells) was “significant apoptosis”. The apoptosis ([7]; 240 minutes, both cell types, cancer and normal control cells) was “significant apoptosis” and the apoptosis ([7]; cells treated for 120 minutes, 10 mM sialic acid, nutrient deprived condition) was “no apoptosis”.
In the case of `O=C(CO)N[C@H]1[C@H]([C@H](O)[C@H](O)CO)OC(O)(C(=O)O)C[C@@H]1O` (some centres unmarked) [Neu5Gc, N-glycolylneuraminic acid], the “surface Neu5Gc” value [1, 13] is reported as 0.182 ± 0.73 nano mole per mg cell protein, the “surface Neu5Gc” value ([2]; MDA MB231, treated with 10 mM Neu5Gc for 2 hrs under nutrient deprivation) is reported as 1.79 ± 0.982 nano mole per mg cell protein and the “surface Neu5Gc” value ([3]; MCF7, treated with 10 mM Neu5Gc for 2 hrs under nutrient deprivation) is reported as 1.58 ± 0.912 nano mole per mg cell protein. For the same molecule, the “surface Neu5Gc” value [4, 13] was 0.608 ± 0.675 nano mole per mg cell protein, the “surface Neu5Gc” value [5, 13] was 0.177 ± 0.31 nano mole per mg cell protein and the glycosylation of membrane [8] was “upregulated the glycosylation significantly”.

Source: US20180050055A1, “Exploiting nutrient deprivation for modulation of glycosylation - research diagnostic, therapeutic, and biotechnology applications” (priority 2016, published 2018)
